The subject of one experiment is S68 antibody. As to the kind of experiment: Peptide blocking of S68 antibody binding to serum protein (specificity of S68 antibody). Also on record: species or system rabbit. To be noted: peptide 0, 0.1, 1, and 10 µg/mL; sera of sepsis patients and normal donors. An excerpt: For confirming the specificity of S68 antibody prepared in Example 1, the inventors studied whether blocking occurs by a peptide by the same assay as that of Example 3-(3). That is, S68 peptide (amino acid sequence at positions 53 to 68), synthetic polypeptide prepared by the same way as that of Example 1 (amino acid sequence at positions 53 to 58, amino acid sequence at positions 57 to 62, and amino acid sequence at positions 59 to 64), or negative control peptide (Cys Glu Gly Asn Gly Asn Asn Phe Glu Ser Arg Glu Ala Cys) was diluted to 0, 0.1, 1, and 10 µg/mL and 25 µL of each diluted solution was added to 25 µL of each of 50-fold diluted solutions of the sera obtained from patients suffering from sepsis and the sera of normal donors to initiate a competitive reaction by mixing with S68 antibody. After that, the levels of the soluble protein bound to S68 antibody without inhibition by any peptide were determined.
The above result confirmed that a protein being detected in blood by S68 antibody is specifically recognized by S68 antibody. In addition, the result also confirmed that the sequence recognized by the antibody requires a length of at least 7 amino acids because the inhibition can not be attained by three kinds of synthetic peptides (the number of amino acids: 6) corresponding to the partial peptides of S68 peptide.

A short description of experiment [1]: Measurement of chemically synthesized peptide with kit of Example 7-(3). In kind it is binding. From the text: A peptide synthesizer ABI433A (Applied) was used and amino acid columns were then aligned according to the amino acid sequences to carry out automatic synthesis. The synthesized peptide was removed from a resin by the conventional method and then recovered by ether precipitation. The resultant peptide was re-dissolved in distilled water and then freeze-dried. After the dissolution, the crude peptide thus obtained was eluted through a linear gradient of 5-70% acetonitrile by the use of C18 reversed phase HPLC (CAPCELL-PAK, Shiseido Co., Ltd.). Consequently, a fraction containing a peptide of interest was collected. The collected fraction was freeze-dried and provided as a purified peptide. The purified peptide was dissolved in the diluent described in Example 7-(12) and then the solution was subjected to the measurement with the kit described in Example 7-(3).

Ends that are not written are not given here.

Regarding “CEGNGNNFESREAC (cysteine pairing not given here) [negative control peptide, reference compound]”, in the experiment on S68 antibody, the “inhibition of the binding between S68 antibody and the soluble protein in serum” value is recorded as “not inhibited”.

On to “S68 peptide: peptide having the sequence of SEQ ID NO: 2, positions 53 to 68 of SEQ ID NO: 3 (RVDADADPRQYADTVK)”, for which the “inhibition of the binding between S68 antibody and the soluble protein in serum” value in the experiment with S68 antibody was “inhibited”.

B1: sCD14(1-70): chemically synthesized soluble polypeptide having amino acids at positions 1 to 70 on the N-terminal of human CD14 (peptide)
peptide: TTPEPCELDDEDFRCVCNFSEPQPDWSEAFQCVSAVEVEIHAGGLNLEPFLKRVDADADPRQYADTVKAL
In the case of B1, in experiment [1], the “reaction with the kit described in Example 7-(3)” value was “strongly reacted”.

The record behind these values is EP1746104B1, “NOVEL SOLUBLE CD14 ANTIGEN” (MOCHIDA PHARMACEUTICAL CO., LTD., priority 2004, dated 2005).
